Like-named read-outs stand apart in the source and are kept apart here.
How the values were obtained:
[1] = tested on: polyphosphate-glucose phosphotransferase activity; assay: C-6 phosphorylation with enzymatic extracts of other Mycobacterium strains (Example 3); details: all the enzymatic preparations (five strains); acceptor 150 mM; 24 hours at 30°C
Description: The bacterial strains used are the followings: • Mycobacterium phlei ATCC 11758, • Mycobacterium smegmatis DSMZ 43465 (equivalent to ATCC 607), • Mycobacterium smegmatis ATCC 607 (equivalent to DSMZ 43465) • Mycobacterium smegmatis ATCC 700084 (or mc^2 155) • Mycobacterium sp DSMZ 2966 (equivalent to NRRL B-3683)

[2] = tested on: polyphosphate-glucose phosphotransferase; details: cited from earlier work; for activity as phosphoryl acceptor: Arthrobacter sp. strain KM, irrespective of the phosphoryl donor, polyphosphate or ATP
rat brain hexokinase = biological target: T1, rat brain hexokinase (Rattus norvegicus, UniProt P05708); details: relative to glucose 6-phosphate; cited from earlier work
T1 sequence (P05708 1-918): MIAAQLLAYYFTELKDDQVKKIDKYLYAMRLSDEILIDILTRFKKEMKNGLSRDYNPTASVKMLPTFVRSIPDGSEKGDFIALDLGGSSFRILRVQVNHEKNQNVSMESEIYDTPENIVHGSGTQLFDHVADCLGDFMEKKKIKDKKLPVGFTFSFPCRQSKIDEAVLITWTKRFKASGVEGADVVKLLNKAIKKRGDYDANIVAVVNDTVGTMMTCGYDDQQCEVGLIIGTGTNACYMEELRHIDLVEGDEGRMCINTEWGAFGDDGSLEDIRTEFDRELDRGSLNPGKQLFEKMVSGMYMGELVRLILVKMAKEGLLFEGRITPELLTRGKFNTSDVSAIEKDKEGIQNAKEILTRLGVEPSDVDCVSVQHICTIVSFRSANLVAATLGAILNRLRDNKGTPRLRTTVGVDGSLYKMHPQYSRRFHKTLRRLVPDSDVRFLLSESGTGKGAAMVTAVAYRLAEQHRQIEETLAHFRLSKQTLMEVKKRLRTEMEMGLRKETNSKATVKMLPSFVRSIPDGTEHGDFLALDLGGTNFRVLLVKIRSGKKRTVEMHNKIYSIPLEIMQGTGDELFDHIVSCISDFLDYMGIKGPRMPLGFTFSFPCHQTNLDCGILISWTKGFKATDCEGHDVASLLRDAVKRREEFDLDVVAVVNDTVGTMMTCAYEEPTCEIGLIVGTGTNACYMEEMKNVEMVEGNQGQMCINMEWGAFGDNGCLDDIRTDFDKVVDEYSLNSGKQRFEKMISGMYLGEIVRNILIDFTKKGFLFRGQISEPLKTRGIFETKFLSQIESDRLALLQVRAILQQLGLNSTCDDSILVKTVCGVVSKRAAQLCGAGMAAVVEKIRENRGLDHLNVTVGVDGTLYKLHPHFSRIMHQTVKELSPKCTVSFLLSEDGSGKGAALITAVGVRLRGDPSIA

[3] = tested on: polyphosphate-glucose phosphotransferase; details: cited from earlier work; for inhibition of the enzyme: donor ATP; for Km: pH 7.5, 30°C
[4] = biological target: polyphosphate-glucose phosphotransferase (Mycobacterium tuberculosis, UniProt P9WIN1); details: cited from earlier work; for Ki: read-out: Ki (ATP inhibits at high concentration)
Sequence of polyphosphate-glucose phosphotransferase (Mycobacterium tuberculosis, UniProt P9WIN1) (P9WIN1 whole entry): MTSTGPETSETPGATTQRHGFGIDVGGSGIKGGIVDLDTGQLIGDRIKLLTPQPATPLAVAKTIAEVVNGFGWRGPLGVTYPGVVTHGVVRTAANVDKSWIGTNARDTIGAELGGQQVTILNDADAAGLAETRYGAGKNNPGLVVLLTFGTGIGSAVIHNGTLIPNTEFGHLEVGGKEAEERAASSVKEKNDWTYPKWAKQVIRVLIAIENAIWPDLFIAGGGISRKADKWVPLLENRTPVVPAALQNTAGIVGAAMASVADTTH

[5] = tested on: polyphosphate-glucose phosphotransferase; details: acceptor D-glucose; label is the phosphate donor; Propionibacterium arabinosum enzyme; cited from earlier work
[6] = tested on: polyphosphate-glucose phosphotransferase; details: acceptor glucose; cited from earlier work
[7] = tested on: polyphosphate-glucose phosphotransferase activity; assay: C-6 phosphorylation of acceptors with polyphosphate by an enzymatic extract, detected by thin layer chromatography (Examples 1 and 2); details: Example 2; same synthesis and detection conditions as Example 1
[8] = tested on: polyphosphate-glucose phosphotransferase; details: donor ATP, acceptor D-glucose; cited from earlier work
[9] = donor polyphosphate, acceptor D-glucose

O=CC[C@@H](O)[C@H](O)[C@H](O)COP(=O)(O)O [2-deoxy-D-glucose-6-phosphate]
synthesis of the phosphorylated product by the enzymatic preparations [1]: able to catalyze the synthesis

O=CC[C@@H](O)[C@H](O)[C@H](O)CO [2-deoxy-D-glucose]
activity as phosphoryl acceptor [2]: inert

O=C[C@H](O)[C@@H](O)[C@H](O)[C@H](S)COP(=O)(O)O [5-thioglucose 6-phosphate]
inhibition constant Ki of rat brain hexokinase, lower than that seen with glucose 6-phosphate (rat brain hexokinase): 10 fold

Nc1ncnc2c1ncn2[C@@H]1O[C@H](COP(=O)(O)OP(=O)(O)O)[C@@H](O)[C@H]1O [ADP]
inhibition of the enzyme ([3]; acceptor D-glucose): inhibit | inhibition of the enzyme ([4]; donor ATP, acceptor D-glucose): inhibit

Nc1ncnc2c1ncn2[C@@H]1O[C@H](COP(=O)(O)O)[C@@H](O)[C@H]1O [AMP]
inhibition of the enzyme ([4]; donor ATP, acceptor D-glucose): inhibit

Nc1ncnc2c1ncn2[C@@H]1O[C@H](COP(=O)(O)OP(=O)(O)OP(=O)(O)O)[C@@H](O)[C@H]1O [ATP, adenosine triphosphate]
Turnover ([3]; acceptor D-glucose, label is the phosphate donor, Propionibacterium shermanii enzyme): 25 s⁻¹ | Km ([3]; label is the phosphate donor): 1500 µM | Turnover [5]: Dimer: 2 x 30000 Turnover: 63 s^-1 | Turnover ([4]; acceptor D-glucose, label is the phosphate donor): 116 s⁻¹ | Km ([4]; pH 7.5, donor ATP): 880 µM | Ki ([4]; pH 7.5, donor ATP): 6.6 mM | Km ([4]; pH 8.6, donor ATP): 1400 µM | Ki ([4]; pH 8.6, donor ATP): 7.4 mM | activity with phosphate donor [6]: No activity with ATP.

Nc1ccn([C@@H]2O[C@H](COP(=O)(O)OP(=O)(O)OP(=O)(O)O)[C@@H](O)[C@H]2O)c(=O)n1 [CTP]
Km ([3]; label is the phosphate donor): 5900 µM

O=C[C@@H](O)[C@H](O)[C@H](O)[C@H](O)CO [D-altrose]
phosphorylation of the acceptor (new substance in the 24 hours-incubation medium) [7]: not phosphorylated

O=C(CO)[C@@H](O)[C@H](O)[C@H](O)CO [D-fructose]
phosphorylation of the acceptor (new substance in the 24 hours-incubation medium) [7]: not phosphorylated | activity as phosphoryl acceptor [2]: inert

O=C[C@H](O)[C@@H](O)[C@@H](O)[C@H](O)CO [D-galactose]
phosphorylation of the acceptor (new substance in the 24 hours-incubation medium) [7]: not phosphorylated | activity as phosphoryl acceptor [2]: inert

O=P(O)(O)OCC1OC(OP(=O)(O)O)C(O)C(O)C1O [D-glucose-1,6-bisphosphate]
synthesis of the phosphorylated product by the enzymatic preparations [1]: could not be synthesized

O=P(O)(O)OC[C@H]1O[C@@H](S)[C@H](O)[C@@H](O)[C@@H]1O [D-glucothiose-6-phosphate]
synthesis of the phosphorylated product by the enzymatic preparations [1]: able to catalyze the synthesis

O=C[C@@H](O)[C@@H](O)[C@H](O)[C@H](O)CO [D-mannose]
activity as % of the activity with glucose ([2]; donor ATP): About 30% of the activity with glucose. | activity as % of the activity with glucose ([2]; donor polyphosphate): ~40% | Km ([2]; pH 7.0, 30°C, donor polyphosphate): 150 µM

O=C[C@H](O)[C@H](O)[C@H](O)CO [D-ribose]
phosphorylation of the acceptor (new substance in the 24 hours-incubation medium) [7]: not phosphorylated

O=C[C@H](O)[C@@H](O)[C@H](O)CO [D-xylose]
inhibition of the enzyme ([3]; acceptor D-glucose): inhibits | inhibition of the enzyme ([4]; donor ATP, acceptor D-glucose): inhibit

O=C(CO)[C@@H](O)[C@H](O)[C@H](O)COP(=O)(O)O [Fru6P]
inhibition of the enzyme ([4]; donor ATP, acceptor D-glucose): inhibit | inhibition of the enzyme [4, 9]: inhibit

O=P(O)(O)OC[C@H]1OC(O)[C@H](O)[C@@H](O)[C@@H]1O (stereo partly drawn) [Glc6P]
inhibition of the enzyme ([3]; acceptor D-glucose): inhibit | inhibition of the enzyme [4, 9]: inhibit

[Cl-].[Na+] [NaCl]
inhibits above (concentration) [8]: NaCl above 100 mM inhibits. Mol. weight: 59000

O=P(O)(O)OP(=O)(O)OP(=O)(O)O [TriPoly(P)]
inhibition of the enzyme ([3]; acceptor D-glucose): inhibits

O=P(O)(O)O[C@H]1O[C@H](CO)[C@@H](O)[C@H](O)[C@H]1O [α-D-glucose-1-phosphate]
phosphorylation of the acceptor (new substance in the 24 hours-incubation medium) [7]: not phosphorylated
